Data as given in patent publication US5725885A, “Composition for enhanced bioremediation of oil” (BioNutraTech, priority 1995, dated 1998).

Columns and labels:
Cyprinodon variegatus = assay: 48 hour acute static renewal toxicity bioassay, Cyprinodon variegatus (E.P.A./600/4-85/013); format: in vivo; conditions: EPA Probit Analysis
Protocol: (§1) A nutrient mixture and coating were prepared as described in example 1. The toxicity of the product as expressed by reduced survival of organisms exposed to various dilutions of the product was determined through a 48 hour acute static renewal bioassay using Mysidopsis bahia and Cyprinodon variegatus. E.P.A./600/4-85/013 test protocol was followed. All organisms were maintained at room temperature with a light/dark cycle of 16/8. Dilution water was made from Tropic Marine Synthetic Sea Salt and was aerated for 24 hours before use in the test. The test was performed in 600 ml polypropylene diSPo beakers rinsed in the dilution water. Ten organisms of Mysidopsis bahia were placed in 200 ml of dilution water making a 5 cm depth. Ten organisms of Cyprinodon variegatus were placed in 500 ml of dilution water making a 9.5 cm depth.
(§2) Dissolved oxygen, pH, conductivity and salinity, alkalinity and hardness were measured before water renewal. CdCl supplied by the E.P.A. was used as the reference toxicant for both of the Mysidopsis and Cyprinodon organisms. Both the Mysidopsis and the Cyprinodons used in this test were obtained from Aquatox, Inc., and were approximately 27 days old at the time of testing. Both batches of organisms were acclimated to the proper salinity, by adding 300 ml of synthetic, fresh water, every hour until test initiation. […]

Mysidopsis bahia = assay: 48 hour acute static renewal toxicity bioassay, Mysidopsis bahia (E.P.A./600/4-85/013); format: in vivo; conditions: EPA Probit Analysis
Protocol: as §1, §2

Question: How did the “EC50 (reduced survival), reference toxicant” value (Cyprinodon variegatus) turn out when `[Cl][Cd][Cl]` [CdCl] was run?
Answer: The value was 7.8237 µg/mL.

Question: And the “EC50 (reduced survival), reference toxicant” value (Mysidopsis bahia)?
Answer: Its value is 0.1185 µg/mL.
